What all share (assay): inhibition of tumour cell growth, NCI panel, 48 h
Assay [1] relates to UO-31 renal.
For assay [2], the system named is SN12C renal.
Assay [3] has as its system T-47D breast.
The subject of assay [4] is SK-MEL-5 melanoma.
Assay [5] deals with HL-60(TB) leukemia.
The subject of assay [6] is SK-MEL-2 melanoma.
Assay [7] deals with SK-OV-3 ovarian.
In assay [8] the test system is CCRF-CEM leukemia.
The subject of assay [9] is LOX IMVI melanoma.
The subject of assay [10] is NCI/ADR-RES ovarian.
The subject of assay [11] is RPMI-8226 leukemia.
Assay [12] concerns MOLT-4 leukemia.
The test system of assay [13] is NCI-H226 lung.
Assay [14] deals with K-562 leukemia.
The subject of assay [15] is RXF 393 renal.
Assay [16] has as its system NCI-H522 lung.
The subject of assay [17] is U251 CNS.
For assay [18], the system named is SF-295 CNS.
The subject of assay [19] is HCT-15 colon.

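A five-concentration, 48-hour dose response in 96-well plates underlies each endpoint, interpolated linearly between surrounding concentrations. At the TGI there is no net growth.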

Take `COc1cc(/C=N/NC2=NCCCN2)ccc1O`: the TGI in [1], in [2], in [3], in assay [4], in assay [5] and in [6] was greater than 100 µM in each case. The TGI in assay [7], in [8], in assay [9], in assay [10], in [11] and in assay [12] was greater than 100 µM in each case. The TGI in [13], in assay [14], in assay [15], in assay [16], in assay [17] and in assay [18] was greater than 100 µM each time. Also, the TGI in assay [19] was greater than 100 µM.

Take `CCCCCNC1=CC(=O)c2ccccc2C1=O`: the TGI in assay [1] is greater than 88.6 µM; in assay [2], greater than 100 µM; in assay [3], greater than 82.6 µM; in assay [4], 77.8 µM; in assay [5] it was greater than 62.6 µM; in assay [6] it was 53.6 µM. The TGI was greater than 84.7 µM in assay [7]; greater than 100 µM in assay [8]; greater than 57 µM in [9]; greater than 100 µM in assay [10]; greater than 100 µM in assay [11]; greater than 100 µM in assay [12]. The TGI was greater than 82.5 µM in assay [13]; greater than 100 µM in [14]; 47.3 µM in assay [15]; 44.3 µM in assay [16]; 34 µM in [17]; greater than 70.3 µM in assay [18]. This compound showed a TGI in assay [19] greater than 100 µM.

As to `O=Cc1ccc2c(c1)CC1(C2)Cc2ccc(C=O)cc2C1`, the TGI in assay [1] was greater than 50.6 µM; in assay [2], 64.5 µM; in [3] it was 71.8 µM; in assay [4], 16.7 µM; in assay [5] it was 5.72 µM; in [6], 30.8 µM. The TGI in [7] was greater than 100 µM; in assay [8], 5.9 µM; in [9], 21.8 µM; in [10] it was 32.5 µM; in assay [11] it was 22.1 µM; in assay [12], 7.11 µM. The TGI is 62.6 µM in [13]; 12.9 µM in [14]; greater than 25.4 µM in [15]; 54.9 µM in assay [16]; 41.7 µM in assay [17]; greater than 70.4 µM in [18]. Also, the TGI in assay [19] was greater than 46.6 µM.

For the compound `COc1cc(C2S/C(=C/c3ccccc3)C(=O)N2c2ccc([N+](=O)[O-])cc2)cc(OC)c1OC` (centres undefined), the TGI in assay [1], in [2], in assay [3], in assay [4], in [5] and in assay [6] was greater than 100 µM each time. Also, the TGI in assay [7], in assay [8], in [9], in assay [10], in assay [11] and in assay [12] was greater than 100 µM throughout. The TGI in assay [13], in [14], in assay [15], in assay [16], in assay [17] and in assay [18] was greater than 100 µM throughout. In [19], this compound came in with a TGI greater than 100 µM.

For `O=C1CCSc2c(cnc3ccccc23)N1`, the TGI in assay [1], in assay [2], in assay [3], in assay [4], in [5] and in [6] was greater than 100 µM each time. Moreover, the TGI in assay [7], in assay [8], in assay [9], in assay [10], in assay [11] and in [12] was greater than 100 µM throughout. For the same compound, the TGI in assay [13], in assay [14], in [15], in assay [16], in assay [17] and in assay [18] was greater than 100 µM each time. Further, the TGI in assay [19] is greater than 100 µM.

As for `CO[C@H](c1ccccc1)[C@H](O)[C@](O)(c1ccccc1)P(=O)(OC)OC`, the TGI in assay [1], in [2], in assay [3], in assay [4], in assay [5] and in [6] was greater than 100 µM in each case. Moreover, the TGI in assay [7], in assay [8], in [9], in assay [10], in assay [11] and in assay [12] was greater than 100 µM in each case. In addition, the TGI in [13], in [14], in [15], in assay [16], in assay [17] and in [18] was greater than 100 µM in each case. This compound showed a TGI in assay [19] greater than 100 µM.
